# Measured values as given in patent US4039663A, “Daunomycins, process for their uses and intermediates” (Societa' Farmaceutici Italia S.p.A., priority 1975, dated 1977).
# Where two headings read alike, the source gives them in different places.
# Legend:
# Moloney Sarcoma Virus = assay: Foci formation by Moloney Sarcoma Virus in mouse embryo fibroblast cultures; assay type: cell-based; conditions: for IC50 / activity at 0.0062 µg/mL / activity at 0.025 µg/mL / activity at 0.1 µg/mL / activity at 0.4 µg/mL: Fibroblast, 72 h, 3 days treatment; for IC50: read-out: Foci Formation ID50 (A); for B/A: ratio ID50 cell proliferation (B) / ID50 foci formation (A), 4320 min; for activity at 0.0062 µg/mL: 0.0062 μg/ml; for activity at 0.0062 µg/mL / activity at 0.025 µg/mL / activity at 0.1 µg/mL / activity at 0.4 µg/mL: read-out: Foci Formation (% of controls); for activity at 0.025 µg/mL: 0.025 μg/ml; for activity at 0.1 µg/mL: 0.1 μg/ml; for activity at 0.4 µg/mL: 0.4 μg/ml
# Method: (§1) The test compounds were evaluated on mouse embryo fibroblast cultures infected with MSV. After a treatment of three days, the inhibiting doses (ID50) were evaluated on cell proliferation and on MSV foci formation.
# (§2) Effect of compounds (VI and (VII) on foci formation and on cell proliferation in cultured mice fibroblasts infected with Moloney Sarcoma Virus. (3 days treatment)
# HeLa cells [1] = assay: Proliferative activity (colony counts) of cultured HeLa cells at different exposure times; assay type: cell-based; conditions: Homo sapiens; for IC50: read-out: ID50 (50% inhibition of colonies); for activity at 0.025 µg/mL: 0.025 μg/ml; for activity at 0.05 µg/mL: 0.05 μg/ml; for activity at 0.1 µg/mL: 0.1 μg/ml; for activity at 0.25 µg/mL: 0.25 μg/ml; for activity at 0.5 µg/mL: 0.5 μg/ml; for activity at 1 µg/mL: 1 μg/ml
# Description: (§3) Tests in vitro on the effect of compounds (VI) and (VII) on the micotic index and the proliferative activity of cultured HeLa cells at different exposure times. The results in Table 4 are expressed as a percent of the untreated controls. The ID50 represents the dose which gives a 50% inhibition of colonies.
# [2] = Cell proliferation in cultured mice fibroblasts infected with Moloney Sarcoma Virus; assay type: cell-based, mouse; conditions: mouse, embryo fibroblasts; 3 days treatment; read-out: Cell Proliferation ID50 (B)
# Method: as §1, §2
# oncogenic viruses = assay: Cell transformation induced by oncogenic viruses (summary); assay type: cell-based
# Method: (§4) The antitumor activity of the novel antibiotic compounds of the invention, i.e., 4'-epi-daunomycin (VI) and 4'-epidaunomycin, β-anomer, (VII) was evaluated on several transplanted tumors in mice, and in in vitro tests, in comparison with the known antitumor agent daunomycin (IV).
# HeLa cells [3] = assay: Micotic index of cultured HeLa cells at different exposure times; assay type: cell-based; conditions: Homo sapiens; for activity at 0.025 µg/mL: 0.025 μg/ml; for activity at 0.05 µg/mL: 0.05 μg/ml; for activity at 0.1 µg/mL: 0.1 μg/ml; for activity at 0.25 µg/mL: 0.25 μg/ml; for activity at 0.5 µg/mL: 0.5 μg/ml; for activity at 1 µg/mL: 1 μg/ml
# Description: as §3
# [4] = tested on: a number of experimental tumors; assay: Antitumor activity on experimental tumors in mice (summary); assay type: in vivo; conditions: mean survival time, non-toxic doses
# Method: as §4
# cultured cells = assay: Inhibition of cell mitosis and proliferation in cultured cells (summary); assay type: cell-based; conditions: cultured cells in vitro
# Method: as §4
# [5] = tested on: mouse embryo fibroblast cultures infected with MSV; assay: Cell proliferation in cultured mice fibroblasts infected with Moloney Sarcoma Virus; assay type: cell-based; conditions: Mus musculus, Fibroblast, 72 h, 3 days treatment, read-out: Cell Proliferation (% of controls); for activity at 0.0062 µg/mL: 0.0062 μg/ml; for activity at 0.025 µg/mL: 0.025 μg/ml; for activity at 0.1 µg/mL: 0.1 μg/ml; for activity at 0.4 µg/mL: 0.4 μg/ml
# Method: as §1, §2
# [6] = tested on: single myocardial cells isolated from the hearts of newborn mice
# Method: The cardiotoxic activity of compound (VI) was evaluated in vitro on single myocardial cells isolated by trypsinization from the hearts of newborn mice (Necco A., Dasdia T. IRCS, 2: 1293, 1974). After 3-4 days, the cell cultures, showing clusters of beating cells, are studied both as to frequency and rhythym.
# ASCITES SARCOMA 180 = assay: Action on ascites sarcoma 180 in mice; assay type: in vivo, mice (Swiss CD 1); conditions: for Average Survival Time (%): 1 day after inoculation, untreated = 100%
# Method: The tests were carried out on groups of 10 female mice (Swiss CD 1). The compounds under examination were administered intraperitoneally in varying doses to the test animals 1 day after intraperitoneal inoculation with 1 × 10^6 tumor cells per animal. The average survival time is given in Table 1 as a percentage of the survival time of untreated animals, which is arbitrarily designated as 100%. Also given in Table 1 are the number of long term survivors.
# TR[…] LEUKEMIA = assay: Transplanted Gross leukemia in mice; assay type: in vivo, Inbred C3 H female mice; conditions: first to fifth day, control = 100
# Description: Inbred C3 H female mice were intravenously inoculated with a suspension of leukemia lymphonodes and spleen cells (2.5 × 10^6 leukemia cells/mouse) and treated, intravenously, from the first to the fifth day after inoculation with the compounds under examination.
# [7] = 2h, value marked * Metaphasic block
smiles,measurement,setting,value
"COc1cccc2c1C(=O)c1c(O)c3c(c(O)c1C2=O)C[C@@](O)(C(C)=O)C[C@@H]3O[C@H]1C[C@H](N)[C@H](O)[C@H](C)O1 [IV, 7-O-(3'-amino-2',3',6'-trideoxy-α-L-lyxohexopyranosyl)-daunomycin-one, reference compound]",IC50,Moloney Sarcoma Virus,0.006 µg/mL
same,B/A,Moloney Sarcoma Virus,1.4
same,IC50,HeLa cells [1]; 2h exposure,0.098 µg/mL
same,IC50,HeLa cells [1]; 8h exposure,0.036 µg/mL
same,IC50,HeLa cells [1]; 24h exposure,0.021 µg/mL
same,CC50 at 72 h,[2],0.0086 µg/mL
"COc1cccc2c1C(=O)c1c(O)c3c(c(O)c1C2=O)C[C@@](O)(C(C)=O)C[C@@H]3O[C@H]1C[C@H](N)[C@@H](O)[C@H](C)O1 [VI, 7-0-(3'-amino-2',3',6'-trideoxy-α-L-arabinohexopyranosyl)-daunomycinone]",activity on cell transformation induced by oncogenic viruses,oncogenic viruses,substantial activity on cell transformation induced by oncogenic viruses
same,activity at 0.0062 µg/mL,Moloney Sarcoma Virus,51%
same,activity at 0.025 µg/mL,Moloney Sarcoma Virus,0%
same,activity at 0.1 µg/mL,Moloney Sarcoma Virus,0%
same,activity at 0.4 µg/mL,Moloney Sarcoma Virus,0%
same,IC50,Moloney Sarcoma Virus,0.006 µg/mL
same,B/A,Moloney Sarcoma Virus,2.1
same,activity at 0.025 µg/mL,HeLa cells [3]; [7],226%
same,activity at 0.025 µg/mL,HeLa cells [3]; 4h,100%
same,activity at 0.025 µg/mL,HeLa cells [3]; 8h,117%
same,activity at 0.05 µg/mL,HeLa cells [3]; [7],189%
same,activity at 0.05 µg/mL,HeLa cells [3]; 4h,103%
same,activity at 0.05 µg/mL,HeLa cells [3]; 8h,122%
same,activity at 0.1 µg/mL,HeLa cells [3]; 2h,79%
same,activity at 0.1 µg/mL,HeLa cells [3]; 4h,140%
same,activity at 0.1 µg/mL,HeLa cells [3]; 8h,0%
same,antitumor activity in mice,[4],increase in the mean survival time at non-toxic doses
same,inhibition of cell mitosis and proliferative activity,cultured cells,powerful inhibitors of cell mitosis and proliferative activity in cultured cells in vitro
same,activity at 0.025 µg/mL,HeLa cells [1]; 2h,113%
same,activity at 0.025 µg/mL,HeLa cells [1]; 8h,88%
same,activity at 0.025 µg/mL,HeLa cells [1]; 24h,48%
same,activity at 0.05 µg/mL,HeLa cells [1]; 2h,115%
same,activity at 0.05 µg/mL,HeLa cells [1]; 8h,56%
same,activity at 0.05 µg/mL,HeLa cells [1]; 24h,23%
same,activity at 0.1 µg/mL,HeLa cells [1]; 2h,77%
same,activity at 0.1 µg/mL,HeLa cells [1]; 8h,23%
same,activity at 0.1 µg/mL,HeLa cells [1]; 24h,3%
same,IC50,HeLa cells [1]; 2h exposure,0.16 µg/mL
same,IC50,HeLa cells [1]; 8h exposure,0.056 µg/mL
same,IC50,HeLa cells [1]; 24h exposure,0.027 µg/mL
same,CC50 at 72 h,[2],0.013 µg/mL
same,activity at 0.0062 µg/mL,[5],75%
same,activity at 0.025 µg/mL,[5],23%
same,activity at 0.1 µg/mL,[5],14%
same,activity at 0.4 µg/mL,[5],1%
same,cardiotoxic activity,[6],lower than that of daunomycin (IV)
same,Long Term Survivors after 60 days,ASCITES SARCOMA 180; 0.22 mg/kg i.p.,1/10
same,Average Survival Time (%),ASCITES SARCOMA 180; 0.22 mg/kg i.p.,111.1%
same,Long Term Survivors after 60 days,ASCITES SARCOMA 180; 1.1 mg/kg i.p.,1/10
same,Average Survival Time (%),ASCITES SARCOMA 180; 1.1 mg/kg i.p.,120.8%
same,Long Term Survivors after 60 days,ASCITES SARCOMA 180; 5.7 mg/kg i.p.,0/10
same,Average Survival Time (%),ASCITES SARCOMA 180; 5.7 mg/kg i.p.,174.5%
same,Average Survival Time (%),TR[…] LEUKEMIA; 1.5 mg/kg daily i.v.,115%
same,Average Survival Time (%),TR[…] LEUKEMIA; 2.25 mg/kg daily i.v.,143%
same,Average Survival Time (%),TR[…] LEUKEMIA; 3 mg/kg daily i.v.,162%
same,Average Survival Time (%),TR[…] LEUKEMIA; 3.75 mg/kg daily i.v.,122%
same,Average Survival Time (%),TR[…] LEUKEMIA; 4.5 mg/kg daily i.v.,120%
"COc1cccc2c1C(=O)c1c(O)c3c(c(O)c1C2=O)C[C@@](O)(C(C)=O)C[C@@H]3O[C@@H]1C[C@H](N)[C@@H](O)[C@H](C)O1 [VII, 7-O-(3'-amino-2',3',6'-trideoxy-β-L-arabinohexopyranosyl)-daunomycinone]",activity on cell transformation induced by oncogenic viruses,oncogenic viruses,substantial activity on cell transformation induced by oncogenic viruses
same,activity at 0.0062 µg/mL,Moloney Sarcoma Virus,48%
same,activity at 0.025 µg/mL,Moloney Sarcoma Virus,44%
same,activity at 0.1 µg/mL,Moloney Sarcoma Virus,5%
same,activity at 0.4 µg/mL,Moloney Sarcoma Virus,0%
same,IC50,Moloney Sarcoma Virus,0.01 µg/mL
same,B/A,Moloney Sarcoma Virus,6.4
same,activity at 0.25 µg/mL,HeLa cells [3]; 2h,137%
same,activity at 0.25 µg/mL,HeLa cells [3]; 4h,103%
same,activity at 0.25 µg/mL,HeLa cells [3]; 8h,85%
same,activity at 0.5 µg/mL,HeLa cells [3]; 2h,95%
same,activity at 0.5 µg/mL,HeLa cells [3]; 4h,67%
same,activity at 0.5 µg/mL,HeLa cells [3]; 8h,88%
same,activity at 1 µg/mL,HeLa cells [3]; 2h,52%
same,activity at 1 µg/mL,HeLa cells [3]; 4h,40%
same,activity at 1 µg/mL,HeLa cells [3]; 8h,0%
same,antitumor activity in mice,[4],increase in the mean survival time at non-toxic doses
same,inhibition of cell mitosis and proliferative activity,cultured cells,powerful inhibitors of cell mitosis and proliferative activity in cultured cells in vitro
same,activity at 0.25 µg/mL,HeLa cells [1]; 2h,108%
same,activity at 0.25 µg/mL,HeLa cells [1]; 8h,86%
same,activity at 0.25 µg/mL,HeLa cells [1]; 24h,70%
same,activity at 0.5 µg/mL,HeLa cells [1]; 2h,101%
same,activity at 0.5 µg/mL,HeLa cells [1]; 8h,37%
same,activity at 0.5 µg/mL,HeLa cells [1]; 24h,18%
same,activity at 1 µg/mL,HeLa cells [1]; 2h,98%
same,activity at 1 µg/mL,HeLa cells [1]; 8h,17%
same,activity at 1 µg/mL,HeLa cells [1]; 24h,6%
same,IC50,HeLa cells [1]; 2h exposure,> 1 µg/mL
same,IC50,HeLa cells [1]; 8h exposure,0.47 µg/mL
same,IC50,HeLa cells [1]; 24h exposure,0.33 µg/mL
same,CC50 at 72 h,[2],0.064 µg/mL
same,activity at 0.0062 µg/mL,[5],87%
same,activity at 0.025 µg/mL,[5],80%
same,activity at 0.1 µg/mL,[5],28%
same,activity at 0.4 µg/mL,[5],14%
same,Long Term Survivors after 60 days,ASCITES SARCOMA 180; 0.26 mg/kg i.p.,0/10
same,Average Survival Time (%),ASCITES SARCOMA 180; 0.26 mg/kg i.p.,96.6%
same,Long Term Survivors after 60 days,ASCITES SARCOMA 180; 1.3 mg/kg i.p.,1/10
same,Average Survival Time (%),ASCITES SARCOMA 180; 1.3 mg/kg i.p.,114.8%
same,Long Term Survivors after 60 days,ASCITES SARCOMA 180; 6.7 mg/kg i.p.,1/10
same,Average Survival Time (%),ASCITES SARCOMA 180; 6.7 mg/kg i.p.,118.6%
same,Average Survival Time (%),TR[…] LEUKEMIA; 1.5 mg/kg daily i.v.,106%
same,Average Survival Time (%),TR[…] LEUKEMIA; 2.25 mg/kg daily i.v.,102%
same,Average Survival Time (%),TR[…] LEUKEMIA; 3 mg/kg daily i.v.,121%
